Test results reported in ChEMBL document CHEMBL4393733 (Bioorg Med Chem, 2019).

Legend:
Carbonic anhydrase 2 = Carbonic anhydrase 2 (Homo sapiens, UniProt P00918); assay: Inhibition of human recombinant N-HA-tagged carbonic anhydrase 2 expressed in HEK293T cells using p-nitrophenyl acetate as substrate measured after 30 mins by colorimetric analysis
[1] = Inhibition of human recombinant N-His-tagged carbonic anhydrase 11 expressed in HEK293T cells using p-nitrophenyl acetate as substrate measured after 30 mins by colorimetric analysis

IC50 (Carbonic anhydrase 2) [µM] | IC50 [1] [µM] | Compound
1.49 | 2.7 | O=S(=O)(Oc1ccc(-c2ccc3sccc3c2)cc1)c1ccccc1
0.5 | 0.28 | Cc1ccc(S(=O)(=O)Oc2ccc(-c3ccc4occc4c3)cc2)cc1
2.13 | 2.17 | CS(=O)(=O)Oc1ccc(-c2ccc3occc3c2)cc1
1.5 | 1.01 | CS(=O)(=O)Oc1ccc(-c2ccc3sccc3c2)cc1
1.21 | 0.52 | CNS(=O)(=O)Oc1ccc(-c2ccc3sccc3c2)cc1
3.3 | 1.77 | Cc1ccc(S(=O)(=O)Oc2ccc(-c3ccc4sccc4c3)cc2)cc1
5.82 | 2.84 | CN(C)S(=O)(=O)Oc1ccc(-c2ccc3sccc3c2)cc1
1.3 | 0.14 | CCS(=O)(=O)Oc1ccc(-c2ccc3sccc3c2)cc1
1.6 | 0.13 | CCS(=O)(=O)Oc1ccc(-c2ccc3occc3c2)cc1
0.41 | 0.85 | O=S(=O)(Oc1ccc(-c2ccc3occc3c2)cc1)c1ccccc1
0.14 | 1.6 | O=S(=O)(Oc1ccc(-c2ccc3occc3c2)cc1)c1ccc(F)cc1
1.32 | 0.24 | NS(=O)(=O)Oc1ccc(-c2ccc3sccc3c2)cc1
1.23 | 1.71 | CN(C)S(=O)(=O)Oc1ccc(-c2ccc3occc3c2)cc1
2.1 | 3.1 | O=S(=O)(Oc1ccc(-c2ccc3sccc3c2)cc1)c1ccc(F)cc1
1.04 | 0.64 | CNS(=O)(=O)Oc1ccc(-c2ccc3occc3c2)cc1
2.6 | 1.11 | NS(=O)(=O)Oc1ccc(-c2ccc3occc3c2)cc1
1.62 | 0.69 | CCCS(=O)(=O)Oc1ccc(-c2ccc3occc3c2)cc1
0.31 | 7.55 | CCCS(=O)(=O)Oc1ccc(-c2ccc3sccc3c2)cc1
